According to paper PMC11866186, “Novel Benzimidazole–Oxadiazole Derivatives as Anticancer Agents with VEGFR2 Inhibitory Activity: Design, Synthesis, In Vitro Anticancer Evaluation, and In Silico Studies” (ACS Omega, 2025):
Where two headings read alike, the source gives them in different places.

Columns and labels:
hTERT-HPNE cell line = experiment: MTT assay, normal pancreas hTERT-HPNE cells; assay type: cell-based; conditions: normal human pancreas cells, 24 h, read-out: IC50 against hTERT-HPNE
Procedure: (§1) By comparing the compounds’ cytotoxic effects against tumor cell lines and normal cell lines, the drug safety parameter for the anticancer activity of the compounds was evaluated, thereby confirming their cytoprotective qualities. In this study, normal human lung (CCD-19Lu) and normal human pancreas (hTERT-HPNE) cell lines were used as controls. The selectivity index (SI) calculated for the compounds tested scales the IC50 values of the compounds against various tumor cell lines with the IC50 values against normal cell lines (Table 2). […] The differential selectivity indices underscore the importance of targeted therapeutic strategies and the potential for these compounds to provide selective anticancer effects with reduced toxicity to normal cells.
(§2) Many analyses are performed to determine cell proliferation. MTT analysis is one of the viability determination tests. According to the working mechanism of the method, the dye containing the tetrazolium ring reacts with the dehydrogenase enzymes in the cells, only to be reduced and broken down by the metabolic cells, turning into water-insoluble formazan crystals. Color changes associated with mitochondrial activity and resulting from the addition of a solvent as a result of the reaction are measured in the microplate reader as optical density data values.[30] Cells were planted in flat-bottomed, 96-well, sterile, lidded, disposable microplates with 1 × 10^4 cells per well in 200 μL of appropriate medium and were allowed to adhere to the plate bottom by incubating for 24 h. At the end of 24 h, 100 μL of medium was withdrawn, and test substances at different concentrations, prepared in 100 μL, were added. Following the substance application, after a 24 h incubation period, 20 μL of stock MTT solution (MTT solution dissolved in 5 mg/mL PBS and filtered before application) was added to each well and protected from light, and the incubation continued for 3 h. Then, the media of the cells were completely withdrawn, and 100 μL of DMSO was added to dissolve the formazan crystals. After shaking in the dark for 15 min, the optical densities (absorbance) of the color changes at 540–570 and 650 nm reference wavelengths were read in the microplate reader. The data were calculated and created in Microsoft Office Excel. For this purpose, first, the blind well value and the control groups of colored substances were removed from the optical readings. The averages of optical densities and % viability values were made from Excel formula calculations, and the results were discussed. The viability of the control group was assumed to be 100%, and all other viability values were calculated based on this (series were run in n = 5 replicates).

A549 cell line = experiment: MTT assay, A549 cells; assay type: cell-based, human; conditions: MTT, 24 h, read-out: IC50 against A549
Procedure: (§3) The synthesized compounds 4a–4s were screened for their in vitro anticancer activity via the standard MTT assay using three human tumor cell lines, namely, the human lung adenocarcinoma cell line (A549), the human breast cancer cell line (MCF-7), and the human pancreas cell line (PANC-1). Cisplatin was used as a reference drug. […] When the structures of the compounds are evaluated, it is seen that the compounds are derived from two different sources. There are hydroxyl and methoxy substituents on the phenyl ring attached to the benzimidazole. It has also been derivatized using different groups on the phenyl ring close to oxadiazole. When the activities in the PANC-1 cell line are evaluated, it is seen that the activity of compounds bearing the 2,4-dichloro substituent is especially high.
as §2

CCD-19Lu cell line = experiment: MTT assay, normal lung CCD-19Lu cells; assay type: cell-based; conditions: normal human lung cells, 24 h, read-out: IC50 against CCD-19Lu
Procedure: as §1, §2

PANC-1 cell line = experiment: MTT assay, PANC-1 cells; assay type: cell-based, human; conditions: MTT, 24 h, read-out: IC50 against PANC-1
Procedure: Cisplatin was used as a reference drug. […] There are hydroxyl and methoxy substituents on the phenyl ring attached to the benzimidazole. It has also been derivatized using different groups on the phenyl ring close to oxadiazole.
as §2

MCF-7 cell line = experiment: MTT assay, MCF-7 cells; assay type: cell-based, human; conditions: read-out: IC50 against MCF-7
Procedure: as §3, §2

Molecule | IC50 (hTERT-HPNE cell line) [µM] | IC50 (A549 cell line; Homo sapiens, A549) [µM] | IC50 (CCD-19Lu cell line; CCD 19Lu) [µM] | IC50 (PANC-1 cell line; Homo sapiens, PANC-1, 24 h) [µM] | IC50 (MCF-7 cell line; Homo sapiens, MCF7, 24 h) [µM] | IC50 (A549 cell line) [µM] | IC50 (CCD-19Lu cell line) [µM] | IC50 (PANC-1 cell line) [µM] | IC50 (MCF-7 cell line; 24 h) [µM]
O=C(CSc1nnc(-c2ccc3nc(-c4ccc(O)cc4)[nH]c3c2)o1)c1ccc(Br)cc1 [4e, 2-((5-(2-(4-Hydroxyphenyl)-1H-benzimidazol-6-yl)-1,3,4-oxadiazol-2-yl)thio)-1-(4-bromophenyl)-ethanone] | 11.3 | 96.1 | 95.3 | 83.8 | 95.2 | – | – | – | –
COc1ccc(-c2nc3ccc(-c4nnc(SCC(=O)c5ccc(C#N)cc5)o4)cc3[nH]2)cc1 [4o, 2-((5-(2-(4-Methoxyphenyl)-1H-benzimidazol-6-yl)-1,3,4-oxadiazol-2-yl)thio)-1-(4-cyanophenyl)-ethanone] | 64.2 | 65.2 | 48.4 | 70.9 | 49.2 | – | – | – | –
COc1ccc(-c2nc3ccc(-c4nnc(SCC(=O)c5ccc(F)cc5F)o4)cc3[nH]2)cc1 [4p, 2-((5-(2-(4-Methoxyphenyl)-1H-benzimidazol-6-yl)-1,3,4-oxadiazol-2-yl)thio)-1-(2,4-diflorophenyl)-ethanone] | 20.4 | 14.9 | 14.7 | 32.6 | 37.1 | – | – | – | –
O=C(CSc1nnc(-c2ccc3nc(-c4ccc(O)cc4)[nH]c3c2)o1)c1ccc(O)c(O)c1 [4i, 2-((5-(2-(4-Hydroxyphenyl)-1H-benzimidazol-6-yl)-1,3,4-oxadiazol-2-yl)thio)-1-(3,4-dihydroxyphenyl)-ethanone] | 10.1 | 21.1 | 13.9 | 23.8 | 16.5 | – | – | – | –
COc1ccc(-c2nc3ccc(-c4nnc(SCC(=O)c5ccccc5)o4)cc3[nH]2)cc1 [4j, 2-((5-(2-(4-Methoxyphenyl)-1H-benzimidazol-6-yl)-1,3,4-oxadiazol-2-yl)thio)-1-phenyl-ethanone] | 93.6 | 99.1 | 95.2 | 95.7 | 53.7 | – | – | – | –
N#Cc1ccc(C(=O)CSc2nnc(-c3ccc4nc(-c5ccc(O)cc5)[nH]c4c3)o2)cc1 [4f, 2-((5-(2-(4-Hydroxyphenyl)-1H-benzimidazol-6-yl)-1,3,4-oxadiazol-2-yl)thio)-1-(4-cyanophenyl)-ethanone] | 74.9 | 50.7 | 68.8 | 60.4 | 45.6 | – | – | – | –
N.N.[Cl][Pt][Cl] [cisplatin, reference compound] | 30.6 | – | – | – | – | 19.7 | 22.6 | 28.8 | 14.7
COc1ccc(-c2nc3ccc(-c4nnc(SCC(=O)c5ccc(Br)cc5)o4)cc3[nH]2)cc1 [4n, 2-((5-(2-(4-Methoxyphenyl)-1H-benzimidazol-6-yl)-1,3,4-oxadiazol-2-yl)thio)-1-(4-bromophenyl)-ethanone] | 36.2 | 19.6 | 36.8 | 29.5 | 28.9 | – | – | – | –
O=C(CSc1nnc(-c2ccc3nc(-c4ccc(O)cc4)[nH]c3c2)o1)c1ccc(Cl)cc1 [4c, 2-((5-(2-(4-Hydroxyphenyl)-1H-benzimidazol-6-yl)-1,3,4-oxadiazol-2-yl)thio)-1-(4-chlorophenyl)-ethanone] | 21.5 | 6.3 | 16.3 | 17.7 | 6.1 | – | – | – | –
O=C(CSc1nnc(-c2ccc3nc(-c4ccc(O)cc4)[nH]c3c2)o1)c1ccc(F)cc1 [4d, 2-((5-(2-(4-Hydroxyphenyl)-1H-benzimidazol-6-yl)-1,3,4-oxadiazol-2-yl)thio)-1-(4-florophenyl)-ethanone] | 6.8 | 10.3 | 5.2 | 33.3 | 10.1 | – | – | – | –
2-((5-(2-(4-Hydroxyphenyl)-1H-benzimidazol-6-yl)-1,3,4-oxadiazol-2-yl)thio)-1-(4-methylphenyl)-ethanone [4b] | 86.8 | – | – | – | – | 5.1 | 40.3 | 33.1 | 17.4
O=C(CSc1nnc(-c2ccc3nc(-c4ccc(O)cc4)[nH]c3c2)o1)c1ccc(Cl)cc1Cl [4h, 2-((5-(2-(4-Hydroxyphenyl)-1H-benzimidazol-6-yl)-1,3,4-oxadiazol-2-yl)thio)-1-(2,4-dichlorophenyl)-ethanone] | 32.9 | 14.6 | 30.3 | 26.7 | 15.7 | – | – | – | –
COc1ccc(-c2nc3ccc(-c4nnc(SCC(=O)c5ccc(Cl)cc5)o4)cc3[nH]2)cc1 [4l, 2-((5-(2-(4-Methoxyphenyl)-1H-benzimidazol-6-yl)-1,3,4-oxadiazol-2-yl)thio)-1-(4-chlorophenyl)-ethanone] | 19.5 | 49.1 | 47.8 | 42.1 | 22.6 | – | – | – | –
COc1ccc(-c2nc3ccc(-c4nnc(SCC(=O)c5ccc(F)cc5)o4)cc3[nH]2)cc1 [4m, 2-((5-(2-(4-Methoxyphenyl)-1H-benzimidazol-6-yl)-1,3,4-oxadiazol-2-yl)thio)-1-(4-florophenyl)-ethanone] | 28.6 | 25.3 | 20.2 | 41.1 | 36.9 | – | – | – | –
2-((5-(2-(4-Methoxyphenyl)-1H-benzimidazol-6-yl)-1,3,4-oxadiazol-2-yl)thio)-1-(4-methylphenyl)-ethanone [4k] | 29.3 | – | – | – | – | 74.7 | 90.4 | 82 | 50.2
O=C(CSc1nnc(-c2ccc3nc(-c4ccc(O)cc4)[nH]c3c2)o1)c1ccc(F)cc1F [4g, 2-((5-(2-(4-Hydroxyphenyl)-1H-benzimidazol-6-yl)-1,3,4-oxadiazol-2-yl)thio)-1-(2,4-diflorophenyl)-ethanone] | 17.1 | 16.8 | 31.8 | 36.6 | 30.7 | – | – | – | –
O=C(CSc1nnc(-c2ccc3nc(-c4ccc(O)cc4)[nH]c3c2)o1)c1ccccc1 [4a, 2-((5-(2-(4-Hydroxyphenyl)-1H-benzimidazol-6-yl)-1,3,4-oxadiazol-2-yl)thio)-1-phenyl-ethanone] | 26.2 | 63.2 | 46.1 | 42.2 | 39.5 | – | – | – | –
